Experimental data reported in patent publication US9481648B2, “Kinase inhibitors” (Respivert Limited, priority 2013, dated 2016).
pIC50: −log10 of the molar value. Like-named read-outs stand apart in the source and are kept apart here.

Columns and labels:
non-mutant kinases = format: binding; conditions: for number of individual kinase hits, S(1): non-mutant kinases with % Ctrl <1
Method: These assays may be conducted by DiscoverX (formerly Ambit; San Diego, Calif.). The percentage inhibition produced by incubation with a test compound may be calculated relative to the non-inhibited control.

[1] = test system: endotoxin (LPS)-induced uveitis in Lewis rats; test: Endotoxin-induced uveitis in rats (in vivo vi); set-up: species or system rat; conditions: Table 7a, eyes of LPS-stimulated rats, 1 mg/mL
Method: Male, Lewis rats (6-8 weeks old, Charles River UK Limited) are housed in cages of 3 at 19-21° C. with a 12 h light/dark cycle (07:00/19:00) and fed a standard diet of rodent chow and water ad libitum. Non-fasted rats are weighed, individually identified on the tail with a permanent marker, and receive a single intravitreal administration into the right vitreous humor (5 μL dose volume) of 100 ng/animal of LPS (Escherichia coli 0111:B4 prepared in PBS, Sigma Aldrich, UK) using a 32-gauge needle. Untreated rats are injected with PBS. […] Following euthanasia, the right eye of each animal is enucleated and dissected into front (anterior) and back (posterior) sections around the lens. Each section is weighed and homogenised in 500 μL of sterile phosphate buffered saline followed by 20 minutes centrifugation at 12000 rpm at 4° C.

[2] = test system: β-catenin in d-U937 cells; test: Accumulation of β catenin in d-U937 cells (assay m); format: cell-based, human
Outline: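 U937 cells were differentiated with PMA (100 ng/mL) for 48–72 hr, then treated with compound or vehicle for 18 hr. After formaldehyde fixation, β-catenin was detected with a primary antibody and an HRP secondary using TMB (OD450–655). Signal was normalised to crystal violet cell staining (OD595).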

c-Src = c-Src (Homo sapiens (Human), UniProt P12931); test: c-Src enzyme inhibition (FRET, Z-LYTE); format: biochemical
Outline: (§1)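 Syk or c-Src enzyme (3000 or 2000 ng/mL solutions) was preincubated 2 h at RT with compound solutions at 1, 0.1, 0.01 or 0.001 µg/mL. Z-LYTE FRET peptide (8 µM solution) and ATP (800 µM solution for c-Src, 60 µM for Syk) were then added for 1 h, followed by protease development for 1 h. Phosphorylation was read as the coumarin/fluorescein emission ratio.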

GSK 3α = GSK 3α (Homo sapiens (Human), UniProt P49840); test: GSK 3α enzyme inhibition (FRET, Z-LYTE; Method 2); format: biochemical; conditions: read-out: IC50 Values for Enzyme Inhibition GSK3α
Outline: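 Phosphorylation was taken from the donor (coumarin) to acceptor (fluorescein) emission ratio after 1 h protease development, which cleaves only unphosphorylated peptide. Before that, peptide (8 μM stock) plus ATP (40 μM stock) reacted 1 h. This followed a 105 min RT preincubation of GSK3-α with compound stocks of 10–0.01 μg/mL.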

p38 MAPKα (MAPK14) = p38 MAPKα (MAPK14) (Homo sapiens (Human), UniProt Q16539); test: p38 MAPKα enzyme inhibition (FRET, Z-LYTE; Method 2); format: biochemical
Syk = Syk (Homo sapiens (Human), UniProt P43405); test: Syk enzyme inhibition (FRET, Z-LYTE); format: biochemical
Outline: as §1

c-Src, sequence (P12931 whole entry, looked up): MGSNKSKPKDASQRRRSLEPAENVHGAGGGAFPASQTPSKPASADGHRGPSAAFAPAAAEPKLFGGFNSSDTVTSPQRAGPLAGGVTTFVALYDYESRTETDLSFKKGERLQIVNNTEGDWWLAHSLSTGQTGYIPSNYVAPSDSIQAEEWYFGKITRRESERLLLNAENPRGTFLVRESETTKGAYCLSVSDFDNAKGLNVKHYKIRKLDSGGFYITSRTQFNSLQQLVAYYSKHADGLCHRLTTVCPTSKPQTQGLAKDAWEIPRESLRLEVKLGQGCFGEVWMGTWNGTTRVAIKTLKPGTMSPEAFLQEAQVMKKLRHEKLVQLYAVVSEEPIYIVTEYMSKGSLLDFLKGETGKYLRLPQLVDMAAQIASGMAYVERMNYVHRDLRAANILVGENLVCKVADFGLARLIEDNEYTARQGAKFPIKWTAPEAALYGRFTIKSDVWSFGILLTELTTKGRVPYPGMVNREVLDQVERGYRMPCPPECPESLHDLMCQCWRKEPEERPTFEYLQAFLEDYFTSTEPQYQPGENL
GSK 3α, sequence (P49840 whole entry): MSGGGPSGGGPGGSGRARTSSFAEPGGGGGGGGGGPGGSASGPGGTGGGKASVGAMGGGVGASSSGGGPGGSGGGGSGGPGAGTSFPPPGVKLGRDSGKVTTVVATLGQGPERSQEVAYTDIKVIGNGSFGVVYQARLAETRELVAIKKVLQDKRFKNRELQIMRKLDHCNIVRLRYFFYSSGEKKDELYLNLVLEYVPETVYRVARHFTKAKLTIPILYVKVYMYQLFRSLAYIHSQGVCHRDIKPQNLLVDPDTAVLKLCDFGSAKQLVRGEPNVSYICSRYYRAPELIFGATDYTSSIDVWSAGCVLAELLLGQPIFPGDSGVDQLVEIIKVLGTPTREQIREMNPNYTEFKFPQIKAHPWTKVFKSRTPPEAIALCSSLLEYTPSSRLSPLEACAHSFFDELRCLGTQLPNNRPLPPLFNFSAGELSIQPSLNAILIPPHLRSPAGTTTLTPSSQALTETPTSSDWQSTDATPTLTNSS
p38 MAPKα (MAPK14), sequence (Q16539 whole entry): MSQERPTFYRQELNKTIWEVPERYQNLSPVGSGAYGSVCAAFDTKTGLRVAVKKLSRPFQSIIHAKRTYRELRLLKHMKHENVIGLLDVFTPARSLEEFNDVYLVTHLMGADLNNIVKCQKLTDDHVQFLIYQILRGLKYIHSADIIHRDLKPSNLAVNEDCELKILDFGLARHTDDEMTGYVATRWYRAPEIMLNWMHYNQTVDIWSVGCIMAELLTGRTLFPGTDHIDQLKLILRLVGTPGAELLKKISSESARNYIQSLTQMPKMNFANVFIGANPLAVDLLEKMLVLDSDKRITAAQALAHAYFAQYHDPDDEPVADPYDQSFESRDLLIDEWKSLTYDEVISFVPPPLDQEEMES

COCC(=O)Nc1cc(Oc2ccc(NC(=O)Nc3cc(C(C)(C)C)nn3-c3ccc(C)cc3)c3ccccc23)ccn1 [Reference Compound, N-(4-(4-(3-(3-tert-butyl-1-p-tolyl-1H-pyrazol-5-yl)ureido)naphthalen-1-yloxy)pyridin-2-yl)-2-methoxyacetamide, reference compound]
number of individual kinase hits, S(1) (non-mutant kinases; 50 nM): 7
number of individual kinase hits, S(10) (non-mutant kinases; 50 nM, non-mutant kinases with % Ctrl <10): 32
number of individual kinase hits, S(35) (non-mutant kinases; 50 nM, non-mutant kinases with % Ctrl <35): 67
number of individual kinase hits, S(1) (non-mutant kinases; 500 nM): 45

C[C@@H]1C[C@H]2[C@@H]3CCC4=CC(=O)C=C[C@]4(C)[C@@]3(F)[C@@H](O)C[C@]2(C)[C@@]1(O)C(=O)CO [Dexamethasone]
IL-1β Anterior [1]: 553.5 ± 155.7 pg/mL
IL-1β Posterior [1]: 365.6 ± 178.2 pg/mL
IL-6 Anterior [1]: 1000.7 ± 126.2 pg/mL
IL-6 Posterior [1]: 1723.4 ± 224.1 pg/mL
MCP-1 Anterior [1]: 156.3 ± 50.8 pg/mL
MCP-1 Posterior [1]: 95.2 ± 32.5 pg/mL

COCCOCCOCCOCCOCCOCCOCCOc1cc(Nc2cc(Oc3ccc(NC(=O)Nc4cc(C(C)(C)C)cc(NS(C)(=O)=O)c4OC)c4ccccc34)ccn2)cc(OC)c1 [Example 45, N-(3-(3-(4-((2-((3-(2,5,8,11,14,17,20-Heptaoxadocosan-22-yloxy)-5-methoxyphenyl)-amino)pyridin-4-yl)oxy)naphthalen-1-yl)ureido)-5-(tert-butyl)-2-methoxyphenyl)methanesulfonamide]
% β-catenin induction ([2]; test compound 1 μg/mL): −4%
% β-catenin induction ([2]; test compound 5 μg/mL): −7%
% β-catenin induction ([2]; test compound 10 μg/mL): −14%
pIC50 (c-Src): 7.41
pIC50 (GSK 3α): 5.67
pIC50 (p38 MAPKα (MAPK14)): 6.84
pIC50 (Syk): 6.34

C#Cc1cc(Nc2cc(Oc3ccc(NC(=O)Nc4cc(C(C)(C)C)cc(C(=O)NC)c4OC)c4ccccc34)ccn2)cc(C(=O)NCCN2CCOCC2)c1 [Example 39, 5-(tert-Butyl)-3-(3-(4-((2-((3-ethynyl-5-((2-morpholinoethyl)carbamoyl)phenyl)amino)-pyridin-4-yl)oxy)naphthalen-1-yl)ureido)-2-methoxy-N-methylbenzamide]
% β-catenin induction ([2]; test compound 1 μg/mL): −11%
% β-catenin induction ([2]; test compound 5 μg/mL): −12%
% β-catenin induction ([2]; test compound 10 μg/mL): −18%
pIC50 (c-Src): 7.54
pIC50 (GSK 3α): 5.80
pIC50 (p38 MAPKα (MAPK14)): 6.85
pIC50 (Syk): 6.24

COCCOCCOCCOc1cc(Nc2nccc(Oc3ccc(NC(=O)Nc4cc(C(C)(C)C)cc(NS(=O)(=O)N5CCOCC5)c4OC)c4ccccc34)n2)cc(OC)c1 [83(b), N-(5-(tert-butyl)-2-methoxy-3-(3-(4-((2-((3-methoxy-5-(2-(2-(2-methoxyethoxy)ethoxy)-ethoxy)phenyl)amino)pyrimidin-4-yl)oxy)naphthalen-1-yl)ureido)phenyl)morpholine-4-sulfonamide]
% β-catenin induction ([2]; test compound 1 μg/mL): −6%
% β-catenin induction ([2]; test compound 5 μg/mL): −9%
% β-catenin induction ([2]; test compound 10 μg/mL): −6%
pIC50 (c-Src): 7.32
pIC50 (GSK 3α): 5.04
pIC50 (p38 MAPKα (MAPK14)): 6.61
pIC50 (Syk): 6.10

COCCOCCOCCOc1cc(Nc2cc(Oc3ccc(NC(=O)Nc4cc(C(C)(C)C)cc(NS(C)(=O)=O)c4OC)c4ccccc34)ccn2)cc(OC)c1 [Example 11, N-(5-(tert-Butyl)-2-methoxy-3-(3-(4-((2-((3-methoxy-5-(2-(2-(2-methoxyethoxy)ethoxy)-ethoxy)phenyl)amino)pyridin-4-yl)oxy)naphthalen-1-yl)ureido)phenyl)-methanesulfonamide]
% β-catenin induction ([2]; test compound 1 μg/mL): −8%
% β-catenin induction ([2]; test compound 5 μg/mL): −5%
% β-catenin induction ([2]; test compound 10 μg/mL): −2%
pIC50 (c-Src): 7.68
pIC50 (GSK 3α): 4.91
pIC50 (p38 MAPKα (MAPK14)): 6.91
pIC50 (Syk): 6.71

CNC(=O)c1cc(C(C)(C)C)cc(NC(=O)Nc2ccc(Oc3ccnc(Nc4cc(OC)cc(OCCOCCOCCOC)c4)n3)c3ccccc23)c1OC [Example 13, 5-(tert-Butyl)-2-methoxy-3-(3-(4-((2-((3-methoxy-5-(2-(2-(2-methoxyethoxy)ethoxy)-ethoxy)phenyl)amino)pyrimidin-4-yl)oxy)naphthalen-1-yl)ureido)-N-methylbenzamide]
% β-catenin induction ([2]; test compound 1 μg/mL): 7%
% β-catenin induction ([2]; test compound 5 μg/mL): 34%
% β-catenin induction ([2]; test compound 10 μg/mL): 26%
pIC50 (c-Src): 8.05
pIC50 (GSK 3α): 6.08
pIC50 (p38 MAPKα (MAPK14)): 7.55
pIC50 (Syk): 7.46

COCCOCCOCCOc1cc(Nc2nccc(Oc3ccc(NC(=O)Nc4cc(C(C)(C)C)cc(C(=O)NCCN(C)C)c4OC)c4ccccc34)n2)cc(OC)c1 [Example 46, 5-(tert-Butyl)-N-(2-(dimethylamino)ethyl)-2-methoxy-3-(3-(4-((2-((3-methoxy-5-(2-(2-(2-methoxyethoxy)ethoxy)ethoxyl)phenyl)amino)pyrimidin-4-yl)oxy)naphthalen-1-yl)ureido)-benzamide]
% β-catenin induction ([2]; test compound 1 μg/mL): −2%
% β-catenin induction ([2]; test compound 5 μg/mL): 2%
% β-catenin induction ([2]; test compound 10 μg/mL): −29%
pIC50 (c-Src): 7.82
pIC50 (GSK 3α): 6.20
pIC50 (p38 MAPKα (MAPK14)): 6.96
pIC50 (Syk): 7.70

COc1cccc(Nc2cc(Oc3ccc(NC(=O)Nc4cc(C(C)(C)C)cc(C(=O)NC5COC5)c4OC)c4ccccc34)ccn2)c1 [Example 81, 5-(tert-Butyl)-2-methoxy-3-(3-(4-((2-((3-methoxyphenyl)amino)pyridin-4-yl)oxy)naphthalen-1-yl)ureido)-N-(oxetan-3-yl)benzamide]
% β-catenin induction ([2]; test compound 1 μg/mL): 4%
% β-catenin induction ([2]; test compound 5 μg/mL): 14%
% β-catenin induction ([2]; test compound 10 μg/mL): 13%
pIC50 (c-Src): 7.24
pIC50 (GSK 3α): 5.31
pIC50 (p38 MAPKα (MAPK14)): 6.76
pIC50 (Syk): 6.92

COCCOCCOCCOc1cc(Nc2nccc(Oc3ccc(NC(=O)Nc4cc(C(C)(C)C)cc(S(N)(=O)=O)c4OC)c4ccccc34)n2)cc(OC)c1 [Example 55, 5-(tert-Butyl)-2-methoxy-3-(3-(4-((2-((3-methoxy-5-(2-(2-(2-methoxyethoxy)ethoxy)-ethoxy)phenyl)amino)pyrimidin-4-yl)oxy)naphthalen-1-yl)ureido)benzenesulfonamide]
% β-catenin induction ([2]; test compound 1 μg/mL): 11%
% β-catenin induction ([2]; test compound 5 μg/mL): 23%
% β-catenin induction ([2]; test compound 10 μg/mL): 45%
pIC50 (c-Src): 7.66
pIC50 (GSK 3α): 5.63
pIC50 (p38 MAPKα (MAPK14)): 6.80
pIC50 (Syk): 6.88

C#Cc1cc(Nc2nccc(Oc3ccc(NC(=O)Nc4cc(C(C)(C)C)cc(NS(C)(=O)=O)c4OC)c4ccccc34)n2)cc(C(=O)N[C@@H](C)CN2CCOCC2)c1 [Example 57, (S)-3-((4-((4-(3-(5-(tert-butyl)-2-methoxy-3-(methylsulfonamido)phenyl)ureido)-naphthalen-1-yl)oxy)pyrimidin-2-yl)amino)-5-ethynyl-N-(1-morpholinopropan-2-yl)benzamide]
% β-catenin induction ([2]; test compound 1 μg/mL): 4%
% β-catenin induction ([2]; test compound 5 μg/mL): 6%
% β-catenin induction ([2]; test compound 10 μg/mL): 11%
pIC50 (c-Src): 7.32
pIC50 (GSK 3α): 5.95
pIC50 (p38 MAPKα (MAPK14)): 6.54
pIC50 (Syk): 6.15
